From patent US9884806B2, “Cyclic vinylogous amides as bromodomain inhibitors” (ICAHN SCHOOL OF MEDICINE AT MOUNT SINAI, priority 2013, dated 2018)
pIC50: −log10 of the molar value.

Key:
BRD4_2 = target: T1, BRD4_2 (Homo sapiens, UniProt O60885); assay: Fluorescence anisotropy binding assay (competition with FITC-labeled MS417 probe), BRD4_2; settings: FITC-MS417 probe 80 nM, PBS pH 7.4, 1 hour, 25° C.
T1 construct: contains two tandem bromodomains (BrD1 and BrD2)

[1] = target: T2, first bromodomain (BrD1) of human BRD4 (Homo sapiens, UniProt O60885); assay: Fluorescence anisotropy binding assay (competition with FITC-labeled MS417 probe); settings: FITC-MS417 probe 80 nM, PBS pH 7.4, 1 hour, 25° C., read-out: BRD4_1 IC50
T2 construct: the first bromodomain (BrD1) of human BRD4; poly-His (cleaved yes); made in house
Protocol: Fluorescence Anisotropy Binding Assay
Expression and purification of the first bromodomain (BrD1) of human BRD4 in poly-His tag form was performed using a procedure described in the literature [See Zeng et al. Structure 16, 643-652 (2008) and Zhang et al., J Biol Chem 287, 28840-28851 (2012).] The protein was purified by using affinity chromatography on a nickel-IDA column (Invitrogen), followed by the removal of poly-His tag by thrombin cleavage.
Binding affinity of the newly synthesized compounds to the BRD4 BrD1 was assessed in a fluorescence anisotropy assay using a fluorescein isothiocyanate (FITC)-labeled MS417 as an assay probe (Zhang et al. 2008 op.cit.). Competition binding was performed with a BrD protein (0.25 to 1 μM) and the fluorescent probe (80 nM), and increasing concentration of unlabeled competing ligand in a PBS buffer (pH 7.4) in total volume of 80 μL. Measurements were obtained after 1 hour incubation of the fluorescent ligand and the protein at 25° C. with Safire 2 microplate reader (Tecan). In the assay, fluorescent ligand concentration was ≦2Kd, and protein concentration was set at which 50-80% of fluorescent ligand is bound. Dissociation constant of a competing ligand was calculated with the correction to Cheng-Prussoff equation introduced by Nicolovska-Coleska and colleagues [Nikolovska-Coleska, Z. et al., Anal Biochem 332, 261-273 (2004). Assuming one-site competitive binding model, the equation used to calculate Ki's from IC50 values recovered from fitting data using Prism:
[formula] where [I50] is the concentration of free inhibitor at 50% inhibition, [L50], the concentration of free labeled ligand at 50% inhibition, and [P0], concentration of free protein at 0% inhibition. Note that Kd for each protein-probe pair is the limit of resolvable Ki in a competition assay.

SMILES	pIC50 (BRD4_2)	pIC50 [1]
COC(=O)c1ccc(NC2=CC(=O)CC2)cc1 [Example 01-1]	5.00 to 6.00	5.00 to 6.00
NC(=O)c1ccc(NC2=CC(=O)CC2)cc1 [Example 01-2]	5.00 to 6.00	5.00 to 6.00
CC1=C(Nc2cccc(C(=O)O)c2)CCC1=O [Example 01-3]	5.00 to 6.00	< 5.00
COC(=O)c1cccc(NC2=C(C)C(=O)CC2)c1 [Example 01-4]	< 5.00	5.00 to 6.00
CC1=C(Nc2ccc(S(N)(=O)=O)cc2)CCC1=O [Example 01-6]	< 5.00	< 5.00
CC1=C(Nc2ccc(C#N)cc2)CCC1=O [Example 01-7]	< 5.00	< 5.00
CC(=O)c1ccc(NC2=C(C)C(=O)CC2)cc1 [Example 01-9]	< 5.00	5.00 to 6.00
COC(=O)c1ccc(NC2=C(C)C(=O)CC2)c(Cl)c1 [Example 01-11, methyl 3-chloro-4((2-methyl-3-oxocyclopent-1-en-1-yl)amino)benzoate]	5.00 to 6.00	5.00 to 6.00
COC(=O)c1ccccc1NC1=C(C)C(=O)CC1 [Example 01-19, methyl 2-((2-methyl-3-oxocyclopent-1-en-1-yl)amino)benzoate]	< 5.00	< 5.00
CC1=C(Nc2ccc(S(=O)(=O)Nc3ccccn3)cc2)CCC1=O [Example 01-31, 4-((2-methyl-3-oxocyclopent-1-en-1-yl)amino)-N-(pyridin-2-yl)benzenesulfonamide]	5.00 to 6.00	5.00 to 6.00
CC1=C(NC2CCN(C(=O)OC(C)(C)C)CC2)CCC1=O [Example 01-32, tert-Butyl 4-((2-methyl-3-oxocyclopent-1-en-1-yl)amino)piperidine-1-carboxylate]	< 5.00	< 5.00
CC1=C(N[C@H]2CC[C@H](C(=O)O)CC2)CCC1=O [Example 01-33, trans-(1R,4R)-4-((2-methyl-3-oxocyclopent-1-en-1-yl)amino)cyclo6hexane-carboxylic acid]	< 5.00	< 5.00
CC1=C(N[C@H]2CC[C@@H](C(=O)O)CC2)CCC1=O [Example 01-34, cis-(1S,4S)-4-((2-methyl-3-oxocyclopent-1-en-1-yl)amino)cyclohexanecarboxylic acid]	< 5.00	< 5.00
CC1=C(Nc2cccc(S(N)(=O)=O)c2)CCC1=O [Example 01-45, 3((2-methyl-3-oxocyclopent-1-en-1-yl)amino)benzenesulfonamide]	5.00 to 6.00	5.00 to 6.00
CC1=C(Nc2cc(S(N)(=O)=O)ccc2Cl)CCC1=O [Example 01-46, 4-chloro-3-((2-methyl-3-oxocyclopent-1-en-1-yl)amino)benzene-sulfonamide]	5.00 to 6.00	5.00 to 6.00
CC1=C(Nc2cccc(N)c2Cl)CCCC1=O [Example 02-11, 3-((3-amino-2-chlorophenyl)amino)-2-methylcyclohex-2-enone]	< 5.00	5.00 to 6.00
CC1=C(Nc2ccc(N)cc2Cl)CCC1=O [Example 02-14, 3-((4-amino-2-chlorophenyl)amino)-2-methylcyclopent-2-enone]	5.00 to 6.00	5.00 to 6.00
CC1=C(Nc2ccc(C(=O)Nc3ccccc3)cc2)CCC1=O [Example 03-1]	5.00 to 6.00	5.00 to 6.00
CC1=C(Nc2ccc(C(=O)N(C)c3ccccc3)cc2)CCC1=O [Example 03-2]	< 5.00	< 5.00
COc1ccc(NC(=O)c2ccc(NC3=C(C)C(=O)CC3)cc2)cc1 [Example 03-6]	5.00 to 6.00	5.00 to 6.00
CC1=C(Nc2ccc(C(=O)Nc3ccc(C)cc3)cc2)CCC1=O [Example 03-7]	5.00 to 6.00	5.00 to 6.00
CC1=C(Nc2ccc(C(=O)Nc3cccc(C)c3)cc2)CCC1=O [Example 03-9]	5.00 to 6.00	5.00 to 6.00
COc1ccccc1NC(=O)c1ccc(NC2=C(C)C(=O)CC2)cc1 [Example 03-10, N-(2-methoxyphenyl)-4-((2-methyl-3-oxocyclopent-1-en-1-yl)amino)benzamide]	5.00 to 6.00	5.00 to 6.00

SMILES	pIC50 (BRD4_2)	pIC50 [1]
COc1cccc(NC(=O)c2ccc(NC3=C(C)C(=O)CC3)cc2)c1 [Example 03-11, N-(3-methoxyphenyl)-4-((2-methyl-3-oxocyclopent-1-en-1-yl)amino)benzamide]	< 5.00	5.00 to 6.00
CC1=C(Nc2ccc(C(=O)Nc3cccc4ccccc34)cc2)CCC1=O [Example 03-16, 4-((2-methyl-3-oxocyclopent-1-en-1-yl)amino)-N-(naphthalen-1-yl)benzamide]	5.00 to 6.00	5.00 to 6.00
CC1=C(Nc2ccc(C(=O)NCc3ccccc3)cc2)CCC1=O [Example 03-18, N-benzyl-4-((2-methyl-3-oxocyclopent-1-en-1-yl)amino)benzamide]	5.00 to 6.00	5.00 to 6.00
CC1=C(Nc2ccc(C(=O)NC3CCCCC3)cc2)CCC1=O [Example 03-19, N-cyclohexyl-4-((2-methyl-3-oxocyclopent-1-en-1-yl)amino)benzamide]	5.00 to 6.00	5.00 to 6.00
CC1=C(Nc2ccc(C(=O)N(C)C)cc2)CCC1=O [Example 03-20, N,N-dimethyl-4-((2-methyl-3-oxocyclopent-1-en-1-yl)amino)benzamide]	< 5.00	< 5.00
CC1=C(Nc2cccc(C(=O)Nc3ccccc3)c2)CCC1=O [Example 03-23, 3((2-methyl-3-oxocyclopent-1-en-1-yl)amino)-N-phenylbenzamide]	5.00 to 6.00	5.00 to 6.00
CC1=C(Nc2cccc(C(=O)NC3CCCCC3)c2)CCC1=O [Example 04-1]	5.00 to 6.00	5.00 to 6.00
CC1=C(Nc2cccc(C(=O)Nc3cccc4ccccc34)c2)CCC1=O [Example 04-2]	5.00 to 6.00	5.00 to 6.00
CC1=C(Nc2cccc(C(=O)Nc3ccncc3)c2)CCC1=O [Example 04-3]	< 5.00	5.00 to 6.00
COc1ccc(NC(=O)c2cccc(NC3=C(C)C(=O)CC3)c2)cc1 [Example 04-4]	5.00 to 6.00	5.00 to 6.00
CC1=C(Nc2cccc(C(=O)Nc3ccccc3C)c2)CCC1=O [Example 04-5]	5.00 to 6.00	5.00 to 6.00
CC1=C(Nc2cccc(C(=O)Nc3cccc(C)c3)c2)CCC1=O [Example 04-6]	< 5.00	5.00 to 6.00
CC1=C(Nc2cccc(C(=O)Nc3ccc(C)cc3)c2)CCC1=O [Example 04-7]	< 5.00	5.00 to 6.00
CC1=C(Nc2cccc(C(=O)Nc3ccccc3F)c2)CCC1=O [Example 04-8]	5.00 to 6.00	5.00 to 6.00
CNC(=O)c1ccc(NC2=C(C)C(=O)CC2)c(Cl)c1 [Example 04-13, 3-chloro-N-methyl-4-((2-methyl-3-oxocyclopent-1-en-1-yl)amino)benzamide]	5.00 to 6.00	5.00 to 6.00
CC1=C(Nc2ccc(C(=O)NC3CCCCC3)cc2Cl)CCC1=O [Example 04-14, 3-chloro-N-cyclohexyl-4-((2-methyl-3-oxocyclopent-1-en-1-yl)amino)benzamide]	5.00 to 6.00	> 6.00
CC1=C(Nc2ccc(C(=O)Nc3ccccc3)cc2Cl)CCC1=O [Example 04-16, 3-chloro-4-((2-methyl-3-oxocyclopent-1-en-1-yl)amino)-N-phenylbenzamide]	5.00 to 6.00	5.00 to 6.00
COc1cccc(NC(=O)c2ccc(NC3=C(C)C(=O)CC3)c(Cl)c2)c1 [Example 04-18, 3-chloro-N-(3-methoxyphenyl)-4-((2-methyl-3-oxocyclopent-1-en-1-yl)amino)benzamide]	5.00 to 6.00	> 6.00
CC1=C(Nc2ccc(C(=O)Nc3cccc(C)c3)cc2Cl)CCC1=O [Example 04-21, 3-chloro-4-((2-methyl-3-oxocyclopent-1-en-1-yl)amino)-N-(m-tolyl)benzamide]	5.00 to 6.00	> 6.00
CC1=C(Nc2ccc(C(=O)Nc3ccc(C)cc3)cc2Cl)CCC1=O [Example 04-22, 3-chloro-4-((2-methyl-3-oxocyclopent-1-en-1-yl)amino)-N-(p-tolyl)benzamide]	5.00 to 6.00	5.00 to 6.00
CC1=C(N[C@H]2CC[C@H](C(=O)Nc3ccccc3)CC2)CCC1=O [Example 04-26, (1R,4R)-4-((2-methyl-3-oxocyclopent-1-en-1-yl)amino)-N-phenylcyclohexane-carboxamide]	< 5.00	< 5.00
CC1=C(N[C@H]2CC[C@H](C(=O)Nc3ccccc3C)CC2)CCC1=O [Example 04-30, (1R,4R)-4-((2-methyl-3-oxocyclopent-1-en-1-yl)amino)-N-(o-tolyl)cyclohexanecarboxamide]	< 5.00	< 5.00
